Experimental data: US20250163104A1, “MACROCYCLIC IMMUNOMODULATORS” (priority 2021, published 2025)
*1 amine or outer side, *2 acyl side, *3 side chain or, on linkers, in order; H or OH if unused. Where a SMILES comes first, the peptide text is derived from it. Bridges are numbered along the chain shown (N, C = ends). [ ]: non-standard residue; d: D form. The star is where a group is joined. ξ: configuration not given here. X3 = O=C([C@H](CCCNC[C@@H](O)[C@H](O)[C@H](O)[C@@H](O)[C@H](O)CO)N[*:1])[*:2]; X4 = O=C([C@H](CCNC[C@@H](O)[C@H](O)[C@H](O)[C@@H](O)[C@H](O)CO)N[*:1])[*:2]; Phe(3-CF3) = N[C@@H](Cc1cccc(C(F)(F)F)c1)C(=O)O; Ala(morpholin-4-yl) = N[C@@H](CN1CCOCC1)C(=O)O; Phe(4-COOH) = N[C@@H](Cc1ccc(C(=O)O)cc1)C(=O)O; Bip = N[C@@H](Cc1ccc(-c2ccccc2)cc1)C(=O)O; Phe(3-Me) = Cc1cccc(C[C@H](N)C(=O)O)c1; Val(3-OH) = CC(C)(O)[C@H](N)C(=O)O; aIle = CC[C@@H](C)[C@H](N)C(=O)O; 4Pal = N[C@@H](Cc1ccncc1)C(=O)O; Cha = N[C@@H](CC1CCCCC1)C(=O)O; Cit = NC(=O)NCCC[C@H](N)C(=O)O; dCha = N[C@H](CC1CCCCC1)C(=O)O; Thr(3ξ) = CC(O)[C@H](N)C(=O)O; Hpra = C#CCC[C@H](N)C(=O)O; Carboxymethyl = O=C(O)C*; Orn = NCCC[C@H](N)C(=O)O; Pra = C#CC[C@H](N)C(=O)O; Dab = NCC[C@H](N)C(=O)O; Nva = CCC[C@H](N)C(=O)O; Dap = NC[C@H](N)C(=O)O

Target: T1, human PD-1 / PD-L1-Ig binding on Jurkat cell line over-expressing human PD-1 (Jurkat-PD-1) (Homo sapiens, UniProt Q15116)
T1 construct: expressed in transfected cells; host or cells: Jurkat
T1 sequence (Q15116 25-288): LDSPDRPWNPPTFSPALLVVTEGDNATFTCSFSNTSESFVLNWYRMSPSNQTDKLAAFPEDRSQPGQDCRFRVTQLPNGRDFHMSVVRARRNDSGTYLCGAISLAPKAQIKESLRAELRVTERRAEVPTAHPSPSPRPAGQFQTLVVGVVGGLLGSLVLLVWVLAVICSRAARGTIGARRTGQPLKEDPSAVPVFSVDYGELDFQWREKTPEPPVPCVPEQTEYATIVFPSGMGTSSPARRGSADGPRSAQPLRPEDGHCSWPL
Test: Jurkat-PD-1 Cell Binding High-Content Screening Assay (CBA)
Type: cell-based
Conditions: Jurkat-PD-1 cells, PE-labeled PD-L1-Ig 20 nM final; read-out: Jurkat HPD1_PDL1 IC50
How it was run: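 PE-PD-L1-Ig 20 nM final; cells in DMEM/10% FCS; cpd pre-incubation 2 h, 37° C; ligand 1 h; PFA fix + Hoechst 33342; high-content imaging read-out.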

| IC50 | Compound |
| --- | --- |
| 0.0051 µM | CC(C)C[C@@H]1NC(=O)[C@H](Cc2c[nH]c3ccccc23)NC(=O)[C@H](CC(=O)O)NC(=O)[C@H](Cc2ccc(OCC(=O)O)cc2)NC(=O)[C@H](Cc2ccc(OCC(=O)O)cc2)NC(=O)CSC[C@@H](C(=O)NCC(N)=O)NC(=O)[C@H](CO)NC(=O)[C@H](C(C)C)NC(=O)[C@H](CC2CCCCC2)NC(=O)[C@H](CCN)NC(=O)[C@@H](CC(C)C)NC(=O)[C@H](CCCN)NC(=O)[C@H](C(C)C)NC(=O)[C@H](Cc2ccc(-c3ccccc3)cc2)NC1=O [Compound 1404] ({CH2CO}-Y(Carboxymethyl)Y(Carboxymethyl)DWL[Bip]V[Orn][dL][Dab][Cha]VSCG-NH2; thioether N-14) |
| 0.105 µM | CC(C)C[C@H]1NC(=O)[C@H](CCCN)NC(=O)[C@H](Cc2ccc(C(=O)O)cc2)NC(=O)[C@H](Cc2ccc(-c3ccccc3)cc2)NC(=O)[C@H](Cc2ccc(C(=O)O)cc2)NC(=O)[C@H](Cc2cccc(C(F)(F)F)c2)NC(=O)[C@H](CC(N)=O)NC(=O)[C@H](Cc2ccc(C(=O)O)cc2)NC(=O)[C@H](CN2CCOCC2)NC(=O)CSC[C@@H](C(=O)N[C@@H](CCN)C(N)=O)NC(=O)[C@H](CCC(=O)O)NC(=O)[C@H](C(C)C)NC(=O)[C@H](CC2CCCCC2)NC(=O)[C@H](CCN)NC1=O [Example 2722] ({CH2CO}-[Ala(morpholin-4-yl)][Phe(4-COOH)]N[Phe(3-CF3)][Phe(4-COOH)][Bip][Phe(4-COOH)][Orn][dL][Dab][Cha]VEC[Dab]-NH2; thioether N-14) |
| 0.0103 µM | C#CCC[C@@H]1NC(=O)[C@H](CC2CCCCC2)NC(=O)[C@H](CCN)NC(=O)[C@@H](CC(C)C)NC(=O)[C@H](CCCN)NC(=O)[C@H](C(C)C)NC(=O)[C@H](Cc2ccc(-c3ccccc3)cc2)NC(=O)[C@H](C(C)C)NC(=O)[C@H](Cc2cccc(C)c2)NC(=O)[C@H](CC(=O)O)NC(=O)[C@H](Cc2ccc(C(=O)O)cc2)NC(=O)[C@H](CN)NC(=O)CSC[C@@H](C(=O)N[C@@H](CCN)C(N)=O)NC(=O)[C@H]([C@@H](C)O)NC1=O [Compound 2027] ({CH2CO}-[Dap][Phe(4-COOH)]D[Phe(3-Me)]V[Bip]V[Orn][dL][Dab][Cha][Hpra]TC[Dab]-NH2; thioether N-14) |
| 0.0085 µM | CC(C)C[C@H]1NC(=O)[C@H](CCCN)NC(=O)[C@H](C(C)C)NC(=O)[C@H](Cc2ccc(-c3ccccc3)cc2)NC(=O)[C@H](C(C)C)NC(=O)[C@H](Cc2c[nH]c3ccccc23)NC(=O)[C@H](CC(=O)O)NC(=O)[C@H](Cc2ccc(OCC(=O)O)cc2)NC(=O)[C@H](CCCNC(=N)N)NC(=O)CSC[C@@H](C(=O)N[C@@H](C)C(N)=O)NC(=O)[C@H](C(C)O)NC(=O)[C@H](C(C)C)NC(=O)[C@H](CC2CCCCC2)NC(=O)[C@H](CCN)NC1=O (stereo partly drawn) [Compound 2530] ({CH2CO}-RY(Carboxymethyl)DWV[Bip]V[Orn][dL][Dab][Cha]V[Thr(3ξ)]CA-NH2; thioether N-14) |
| 0.0623 µM | C#CC[C@H](NC(=O)[C@@H]1CSCC(=O)N[C@@H](CCC)C(=O)N[C@@H](Cc2ccc(OCC(=O)O)cc2)C(=O)N[C@@H](CC(=O)O)C(=O)N[C@@H](Cc2cccc(C)c2)C(=O)N[C@@H](Cc2ccc(OCC(=O)O)cc2)C(=O)N[C@@H](Cc2ccc(-c3ccccc3)cc2)C(=O)N[C@@H](Cc2ccc(OCC(=O)O)cc2)C(=O)N[C@@H](CCCNC[C@@H](O)[C@H](O)[C@H](O)[C@@H](O)[C@H](O)CO)C(=O)N[C@H](CC(C)C)C(=O)N[C@@H](CCNC[C@@H](O)[C@H](O)[C@H](O)[C@@H](O)[C@H](O)CO)C(=O)N[C@@H](CC2CCCCC2)C(=O)N[C@@H](C(C)C)C(=O)N[C@@H](CCC(=O)O)C(=O)N1)C(=O)O [Compound 2700] ({CH2CO}-[Nva]Y(Carboxymethyl)D[Phe(3-Me)]Y(Carboxymethyl)[Bip]Y(Carboxymethyl)[X3][dL][X4][Cha]VEC[Pra]-OH; thioether N-14) |
| 0.0438 µM | CC(C)C[C@H]1NC(=O)[C@H](CCCN)NC(=O)[C@H](CCCCN)NC(=O)[C@H](Cc2ccc(-c3ccccc3)cc2)NC(=O)[C@H](C(C)C)NC(=O)[C@H](Cc2c[nH]c3ccccc23)NC(=O)[C@H](CC(=O)O)NC(=O)[C@H](Cc2ccncc2)NC(=O)[C@H](CN)NC(=O)CSC[C@@H](C(=O)N[C@@H](CCCN)C(N)=O)NC(=O)[C@H]([C@@H](C)O)NC(=O)[C@H](C(C)C)NC(=O)[C@H](CC2CCCCC2)NC(=O)[C@H](CCN)NC1=O [Compound 2250] ({CH2CO}-[Dap][4Pal]DWV[Bip]K[Orn][dL][Dab][Cha]VTC[Orn]-NH2; thioether N-14) |
| 0.0088 µM | CC(C)C[C@H]1NC(=O)[C@H](CCCN)NC(=O)[C@H](C(C)C)NC(=O)[C@H](Cc2ccc(-c3ccccc3)cc2)NC(=O)[C@H](C(C)C)NC(=O)[C@H](Cc2c[nH]c3ccccc23)NC(=O)[C@H](CC(=O)O)NC(=O)[C@H](Cc2ccc(OCC(=O)O)cc2)NC(=O)[C@H](Cc2ccc(OCC(=O)O)cc2)NC(=O)CSC[C@@H](C(=O)N[C@@H](C)C(N)=O)NC(=O)[C@H](CCCCN)NC(=O)[C@H](C(C)C)NC(=O)[C@H](CC2CCCCC2)NC(=O)[C@H](CCN)NC1=O [Compound 1746] ({CH2CO}-Y(Carboxymethyl)Y(Carboxymethyl)DWV[Bip]V[Orn][dL][Dab][Cha]VKCA-NH2; thioether N-14) |
| 0.0106 µM | CC(C)C[C@H]1NC(=O)[C@H](CCCN)NC(=O)[C@H](C(C)C)NC(=O)[C@H](Cc2ccc(-c3ccccc3)cc2)NC(=O)[C@H](C(C)C)NC(=O)[C@H](Cc2c[nH]c3ccccc23)NC(=O)[C@H](CC(=O)O)NC(=O)[C@H](Cc2ccc(OCC(=O)O)cc2)NC(=O)[C@H](Cc2ccncc2)NC(=O)CSC[C@@H](C(=O)N[C@@H](CCN)C(N)=O)NC(=O)[C@H](C(C)O)NC(=O)[C@H](C(C)(C)O)NC(=O)[C@H](CC2CCCCC2)NC(=O)[C@H](CCN)NC1=O (stereo partly drawn) [Compound 2629] ({CH2CO}-[4Pal]Y(Carboxymethyl)DWV[Bip]V[Orn][dL][Dab][Cha][Val(3-OH)][Thr(3ξ)]C[Dab]-NH2; thioether N-14) |
| 0.0483 µM | CC[C@@H](C)[C@@H]1NC(=O)[C@H](Cc2ccc(-c3ccccc3)cc2)NC(=O)[C@H](C(C)C)NC(=O)[C@H](Cc2c[nH]c3ccccc23)NC(=O)[C@H](CC(=O)O)NC(=O)[C@H](Cc2ccncc2)NC(=O)[C@H](CN)NC(=O)CSC[C@@H](C(=O)N[C@@H](C)C(N)=O)NC(=O)[C@H]([C@@H](C)O)NC(=O)[C@H](C(C)C)NC(=O)[C@H](CC2CCCCC2)NC(=O)[C@H](CCN)NC(=O)[C@@H](CC2CCCCC2)NC(=O)[C@H](CCCN)NC1=O [Compound 1630] ({CH2CO}-[Dap][4Pal]DWV[Bip][aIle][Orn][dCha][Dab][Cha]VTCA-NH2; thioether N-14) |
| 0.0136 µM | CC(C)C[C@H]1NC(=O)[C@H](CCCN)NC(=O)[C@H](CCC(=O)O)NC(=O)[C@H](Cc2ccc(-c3ccccc3)cc2)NC(=O)[C@H](C(C)C)NC(=O)[C@H](Cc2cccc(Cl)c2)NC(=O)[C@H](CC(=O)O)NC(=O)[C@H](Cc2ccc(O)cc2)NC(=O)[C@H](Cc2ccncc2)NC(=O)CSC[C@@H](C(=O)N[C@@H](C)C(N)=O)NC(=O)[C@H]([C@@H](C)O)NC(=O)[C@H](C(C)C)NC(=O)[C@H](CC2CCCCC2)NC(=O)[C@H](CCN)NC1=O [Compound 1489] |
| 0.0091 µM | CC[C@H](C)[C@@H]1NC(=O)[C@H](Cc2ccc(-c3ccccc3)cc2)NC(=O)[C@H](C(C)C)NC(=O)[C@H](Cc2c[nH]c3ccccc23)NC(=O)[C@H](CC(=O)O)NC(=O)[C@H](Cc2ccc(C(=O)O)cc2)NC(=O)[C@H](Cc2ccc(OCC(=O)O)cc2)NC(=O)CSC[C@@H](C(=O)N[C@@H](C)C(N)=O)NC(=O)[C@H]([C@@H](C)O)NC(=O)[C@H](C(C)C)NC(=O)[C@H](Cc2ccccc2)NC(=O)[C@H](CCN)NC(=O)[C@@H](CC(C)C)NC(=O)[C@H](CCCN)NC1=O [Compound 1659] ({CH2CO}-Y(Carboxymethyl)[Phe(4-COOH)]DWV[Bip]I[Orn][dL][Dab]FVTCA-NH2; thioether N-14) |
| 0.0205 µM | CC(C)C[C@H]1NC(=O)[C@H](CCCN)NC(=O)[C@H](CCCCN)NC(=O)[C@H](Cc2ccc(-c3ccccc3)cc2)NC(=O)[C@H](C(C)C)NC(=O)[C@H](Cc2c[nH]c3ccccc23)NC(=O)[C@H](CC(=O)O)NC(=O)[C@H](Cc2ccncc2)NC(=O)[C@H](CN)NC(=O)CSC[C@@H](C(=O)N[C@@H](CC(N)=O)C(N)=O)NC(=O)[C@H](C(C)O)NC(=O)[C@H](C(C)C)NC(=O)[C@H](CC2CCCCC2)NC(=O)[C@H](CCN)NC1=O (stereo partly drawn) [Compound 2542] ({CH2CO}-[Dap][4Pal]DWV[Bip]K[Orn][dL][Dab][Cha]V[Thr(3ξ)]CN-NH2; thioether N-14) |
| 0.0202 µM | CC(C)[C@@H]1NC(=O)[C@H](Cc2c[nH]c3ccccc23)NC(=O)[C@H](CC(=O)O)NC(=O)[C@H](Cc2ccc(OCC(=O)O)cc2)NC(=O)[C@H](Cc2ccc(OCC(=O)O)cc2)NC(=O)CSC[C@@H](C(=O)N[C@@H](C)C(N)=O)NC(=O)[C@H]([C@@H](C)O)NC(=O)[C@H](C(C)C)NC(=O)[C@H](CC2CCCCC2)NC(=O)[C@H](CCN)NC(=O)[C@@H](CC2CCCCC2)NC(=O)[C@H](CCCN)NC(=O)[C@H](C(C)C)NC(=O)[C@H](Cc2ccc(-c3ccccc3)cc2)NC1=O [Compound 1633] ({CH2CO}-Y(Carboxymethyl)Y(Carboxymethyl)DWV[Bip]V[Orn][dCha][Dab][Cha]VTCA-NH2; thioether N-14) |
| 0.0379 µM | Cc1cccc(C[C@@H]2NC(=O)[C@H](CC(=O)O)NC(=O)[C@H](Cc3ccc(C(=O)O)cc3)NC(=O)[C@H](Cc3ccc(OCC(=O)O)cc3)NC(=O)CSC[C@@H](C(N)=O)NC(=O)[C@H]([C@@H](C)O)NC(=O)[C@H](C(C)C)NC(=O)[C@H](CC(C)C)NC(=O)[C@H](CCN)NC(=O)[C@@H](CC(C)C)NC(=O)[C@H](CCCN)NC(=O)[C@H](CCCNC(N)=O)NC(=O)[C@H](Cc3ccc(-c4ccccc4)cc3)NC(=O)[C@H](C(C)C)NC2=O)c1 [Compound 1557] ({CH2CO}-Y(Carboxymethyl)[Phe(4-COOH)]D[Phe(3-Me)]V[Bip][Cit][Orn][dL][Dab]LVTC-NH2; thioether N-14) |
